Results from the supplement of paper PMC11061612.

How the values were obtained:
[1] = compound: COc1nnc2ccc(N3CCC(c4ccc(OCCN5CCN(C)C(=O)[C@H]5C)cc4)CC3)nn12 [AZD5153]; details: max 1 µM
How it was run: (§1)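 After 24 hours at 37°C and 5% CO2 in 1536-well plates holding 7.5 μl of DMEM/F12 or RPMI with 10% FBS, cancer cell lines were dosed for 72 hours, with final DMSO typically 0.2%. Viability came from CellTiter-Glo 2.0 luminescence, scaled between the means of blank wells and DMSO wells. A non-linear mixed effects model fitted a two-parameter logistic curve to each dose response to give the single-agent IC50.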

[2] = compound: C[C@@H](Nc1cc(F)cc(F)c1)c1cc(C(=O)N(C)C)cc2c(=O)cc(N3CCOCC3)oc12 [AZD8186]; details: max 10 µM
How it was run: as §1

[3] = compound: CC(=O)c1c(C)c2cnc(Nc3ccc(N4CCNCC4)cn3)nc2n(C2CCCC2)c1=O [Palbociclib]; details: max 10 µM
How it was run: as §1

[4] = compound: COc1cc(Nc2ncc3c(n2)-c2ccc(Cl)cc2C(c2c(F)cccc2OC)=NC3)ccc1C(=O)O [Alisertib]; details: max 10 µM
How it was run: as §1

[5] = compound: CC1=C(C(=CC=C1)Cl)NC(=O)C2=CN=C(S2)NC3=CC(=NC(=N3)C)N4CCN(CC4)CCO [Dasatinib]; details: max 2 µM
How it was run: as §1

[6] = compound: O=C(c1cc(Cc2n[nH]c(=O)c3ccccc23)ccc1F)N1CCN(C(=O)C2CC2)CC1 [Olaparib]; details: max 10 µM
How it was run: as §1

[7] = compound: CN(CC[C@H](CSC1=CC=CC=C1)NC2=C(C=C(C=C2)S(=O)(=O)NC(=O)C3=CC=C(C=C3)N4CCC(CC4)[C@H](C5=CC=CC=C5C6=CC=C(C=C6)Cl)O)S(=O)(=O)C(F)(F)F)CCO [AZD4320]; details: max 1 µM
How it was run: as §1

[8] = compound: C[C@@H]1COCCN1C2=NC(=NC(=C2)C3(CC3)[S@](=N)(=O)C)C4=C5C=CNC5=NC=C4 [AZD6738]; details: max 10 µM
How it was run: as §1

[9] = compound: COc1cccc(OCCCN)c1-c1cc(Nc2cnc(C#N)cn2)n[nH]1 [Prexasertib]; details: max 1 µM
How it was run: as §1

[10] = compound: CC(=O)Nc1cccc(-n2c(=O)n(C3CC3)c(=O)c3c(Nc4ccc(I)cc4F)n(C)c(=O)c(C)c32)c1 [Trametinib]; details: max 1 µM
How it was run: as §1

[11] = compound: COc1cc2ncnc(Nc3ccc(F)c(Cl)c3)c2cc1OCCCN1CCOCC1 [Gefitinib]; details: max 10 µM
How it was run: as §1

[12] = compound: Cc1c2c(nn1C)CSCc1cc(n(C)n1)CSc1cc(c3ccccc3c1)OCCCc1c(C(=O)O)n(C)c3c-2c(Cl)ccc13 [AZD5991]; details: max 1 µM
How it was run: as §1

[13] = compound: C1CC(C1)(C(=O)[O-])C(=O)[O-].N.N.[Pt+2] [Carboplatin]; details: max 10 µM
How it was run: as §1

[14] = compound: CN(C)CCCOc1ccc(-c2ccc3ncc4c(c3c2)n(C2CCOCC2)c(=O)n4C)cn1 [AZD0156]; details: max 3 µM
How it was run: as §1

[15] = compound: C[C@@H](c1ccc2nccn2c1)n1nnc2ncc(-c3cnn(C)c3)nc21 [Savolitinib]; details: max 1 µM
How it was run: as §1

[16] = compound: CC1=CN2[C@@H](C1)C=NC3=CC(=C(C=C3C2=O)OC)OCCCCCOC4=C(C=C5C(=C4)N=C[C@@H]6CC(=CN6C5=O)C)OC [SG3199]; details: max 0.001 µM
How it was run: as §1

[17] = compound: CC(C)n1c(=O)n(C)c2cnc3cc(F)c(-c4ccc(OCCCN5CCCCC5)nc4)cc3c21 [AZD1390]; details: max 0.3 µM
How it was run: as §1

[18] = compound: CCc1c2c(nc3ccc(O)cc13)-c1cc3c(c(=O)n1C2)COC(=O)[C@]3(O)CC [SN-38]; details: max 0.3 µM
How it was run: as §1

[19] = compound: COc1cccc2c1C(=O)c1c(O)c3c(c(O)c1C2=O)C[C@@](O)(C(=O)CO)C[C@@H]3O[C@H]1C[C@H](N)[C@H](O)[C@H](C)O1 [Doxorubicin]; details: max 1 µM
How it was run: as §1

[20] = compound: NC1(c2ccc(-c3nc4ccn5c(=O)[nH]nc5c4cc3-c3ccccc3)cc2)CCC1 [MK-2206]; details: max 10 µM
How it was run: as §1

[21] = compound: C[C@@H](Oc1cc(-c2cnn(C3CCNCC3)c2)cnc1N)c1c(Cl)ccc(F)c1Cl [Crizotinib]; details: max 10 µM
How it was run: as §1

[22] = compound: C=CCn1c(=O)c2cnc(Nc3ccc(N4CCN(C)CC4)cc3)nc2n1-c1cccc(C(C)(C)O)n1 [AZD1775]; details: max 3 µM
How it was run: as §1

[23] = compound: Nc1ccn([C@@H]2O[C@H](CO)[C@@H](O)C2(F)F)c(=O)n1 [Gemcitabine]; details: max 0.3 µM
How it was run: as §1

[24] = compound: CCN(CCO)CCCOc1ccc2c(Nc3cc(CC(=O)Nc4cccc(F)c4)[nH]n3)ncnc2c1 [AZD2811]; details: max 1 µM
How it was run: as §1

[25] = compound: Cc1nc(-c2cn3c(n2)-c2ccc(-c4cnn(C(C)(C)C(N)=O)c4)cc2OCC3)n(C(C)C)n1 [Taselisib]; details: max 10 µM
How it was run: as §1

[26] = compound: O=c1[nH]cc(F)c(=O)[nH]1 [5-Fluorouracil]; details: max 20 µM
How it was run: as §1

[27] = compound: C1CN(CCC1(C(=O)N[C@@H](CCO)C2=CC=C(C=C2)Cl)N)C3=NC=NC4=C3C=CN4 [AZD5363]; details: max 10 µM
How it was run: as §1

[28] = compound: N#Cc1cnc(Nc2cc(NC[C@H]3CNCCO3)c(C(F)(F)F)cn2)cn1 [SRA737]; details: max 10 µM
How it was run: as §1

[29] = compound: Cn1cnc2c(F)c(Nc3ccc(Br)cc3Cl)c(C(=O)NOCCO)cc21 [Selumetinib]; details: max 10 µM
How it was run: as §1

[30] = compound: CS(=O)(=O)CCNCc1ccc(-c2ccc3ncnc(Nc4ccc(OCc5cccc(F)c5)c(Cl)c4)c3c2)o1 [Lapatinib]; details: max 10 µM
How it was run: as §1

[31] = compound: CC1(C)CCC(CN2CCN(c3ccc(C(=O)NS(=O)(=O)c4ccc(NCC5CCOCC5)c([N+](=O)[O-])c4)c(Oc4cnc5[nH]ccc5c4)c3)CC2)=C(c2ccc(Cl)cc2)C1 [Venetoclax]; details: max 1 µM
How it was run: as §1

[32] = compound: CC(=O)O[C@H]1C(=O)[C@@]2(C)[C@H]([C@H](OC(=O)c3ccccc3)[C@]3(O)C[C@H](OC(=O)[C@H](O)[C@@H](NC(=O)c4ccccc4)c4ccccc4)C(C)=C1C3(C)C)[C@]1(OC(C)=O)CO[C@@H]1C[C@@H]2O [Paclitaxel]; details: max 3 µM
How it was run: as §1

[33] = compound: COc1cc([C@@H]2c3cc4c(cc3[C@@H](O[C@@H]3O[C@@H]5CO[C@@H](C)O[C@H]5[C@H](O)[C@H]3O)[C@H]3COC(=O)[C@H]23)OCO4)cc(OC)c1O [Etoposide]; details: max 10 µM
How it was run: as §1

[34] = compound: O=C(Nc1ccc2[nH]nc(-c3ccncc3)c2c1)[C@@H]1CCN(CC(=O)N2CCN(c3ccc(-c4ncccn4)cc3)CC2)C1; details: max 5 µM
How it was run: as §1

[35] = compound: Cc1cc2ncnn2cc1Nc1ncc2c(n1)n(C1CCOCC1)c(=O)n2C [AZD7648]; details: max 10 µM
How it was run: as §1

## NCI-H1651 (Lung Adenocarcinoma)
[1]
  IC50, cell viability 72 h: > 1000 nM
[2]
  IC50, cell viability 72 h: > 10000 nM
[3]
  IC50, cell viability 72 h: > 10000 nM
[4]
  IC50, cell viability 72 h: > 10000 nM
[5]
  IC50, cell viability 72 h: > 2000 nM
[6]
  IC50, cell viability 72 h: > 10000 nM
[7]
  IC50, cell viability 72 h: > 1000 nM
[8]
  IC50, cell viability 72 h: > 10000 nM
[9]
  IC50, cell viability 72 h: 83.1 nM
[10]
  IC50, cell viability 72 h: > 1000 nM
[11]
  IC50, cell viability 72 h: > 10000 nM
[12]
  IC50, cell viability 72 h: > 1000 nM
[13]
  IC50, cell viability 72 h: > 10000 nM
[14]
  IC50, cell viability 72 h: > 3000 nM
[15]
  IC50, cell viability 72 h: > 1000 nM
[16]
  IC50, cell viability 72 h: > 1 nM
[17]
  IC50, cell viability 72 h: > 300 nM
[18]
  IC50, cell viability 72 h: 22.1 nM
[19]
  IC50, cell viability 72 h: 788 nM
[20]
  IC50, cell viability 72 h: > 10000 nM
[21]
  IC50, cell viability 72 h: > 10000 nM
[22]
  IC50, cell viability 72 h: 779 nM
[23]
  IC50, cell viability 72 h: > 300 nM
[24]
  IC50, cell viability 72 h: > 1000 nM
[25]
  IC50, cell viability 72 h: > 10000 nM
[26]
  IC50, cell viability 72 h: > 20000 nM
[27]
  IC50, cell viability 72 h: > 10000 nM
[28]
  IC50, cell viability 72 h: > 10000 nM
[29]
  IC50, cell viability 72 h: > 10000 nM
[30]
  IC50, cell viability 72 h: > 10000 nM
[31]
  IC50, cell viability 72 h: > 1000 nM
[32]
  IC50, cell viability 72 h: 21.7 nM
[33]
  IC50, cell viability 72 h: 6010 nM
[34]
  IC50, cell viability 72 h: > 5000 nM
[35]
  IC50, cell viability 72 h: > 10000 nM
